Results published in patent US10710978B2, “STK4 inhibitors for treatment of hematologic malignancies” (Dana-Farber Cancer Institute, Inc., priority 2015, dated 2020).
Where two headings read alike, the source gives them in different places.

Columns and labels:
Assay in all cases: KiNativ assay
Format in all cases: binding
[1] = biological target: PFTAIRE1 (Homo sapiens (Human), UniProt O94921); settings: H929 live cell
Protocol: (§1) Biochemical IC50s of the compounds of the present disclosure against various kinases were measured in a KiNativ assay. Compounds were screened in duplicate at 10 μM in H929 live cell. IC50 was measured via Mass spectroscopy (MS).

[2] = biological target: CHK2 (Homo sapiens (Human), UniProt O96017); settings: H929 live cell
Protocol: as §1

[3] = test system: MST4, YSK1; settings: H929 live cell; for % inhibition (range): 10 μM
Protocol: as §1

[4] = biological target: AurB (Homo sapiens (Human), UniProt Q96GD4); settings: H929 live cell
Protocol: as §1

[5] = biological target: NEK9 (Homo sapiens (Human), UniProt Q8TD19); settings: H929 live cell
Protocol: as §1

[6] = biological target: MSK2 domain1 (Homo sapiens (Human), UniProt O75676); settings: H929 live cell
Protocol: as §1

[7] = biological target: GSK3B (Homo sapiens (Human), UniProt P49841); settings: H929 live cell
Protocol: as §1

[8] = biological target: PRP4 (Homo sapiens (Human), UniProt Q13523); settings: H929 live cell
Protocol: as §1

[9] = biological target: PIK3CB (Homo sapiens (Human), UniProt P42338); settings: H929 live cell
Protocol: as §1

[10] = biological target: LKB1 (Homo sapiens (Human), UniProt Q15831); settings: H929 live cell
Protocol: as §1

[11] = biological target: CaMK2d (Homo sapiens (Human), UniProt Q13557); settings: H929 live cell
Protocol: as §1

[12] = biological target: TAO2 (Homo sapiens (Human), UniProt Q9UL54); settings: H929 live cell
Protocol: as §1

[13] = biological target: MAP2K7 (Homo sapiens (Human), UniProt O14733); settings: H929 live cell
Protocol: as §1

[14] = biological target: MAP2K5 (Homo sapiens (Human), UniProt Q13163); settings: H929 live cell
Protocol: as §1

[15] = biological target: CK1g2 (Homo sapiens (Human), UniProt P78368); settings: H929 live cell
Protocol: as §1

[16] = biological target: DGKH (Homo sapiens (Human), UniProt Q86XP1); settings: H929 live cell
Protocol: as §1

[17] = biological target: CDK7 (Homo sapiens (Human), UniProt P50613); settings: H929 live cell
Protocol: as §1

[18] = biological target: NDR2 (Homo sapiens (Human), UniProt Q9Y2H1); settings: H929 live cell
Protocol: as §1

[19] = test system: MARK1, MARK2; settings: H929 live cell; for % inhibition (range): 10 μM
Protocol: as §1

[20] = biological target: MST2 (Homo sapiens (Human), UniProt Q13188); settings: H929 live cell
Protocol: as §1

[21] = biological target: JAK3 domain2 (Homo sapiens (Human), UniProt P52333); settings: H929 live cell
Protocol: as §1

[22] = test system: CDK11, CDK8; settings: H929 live cell
Protocol: as §1

[23] = test system: KSR1, KSR2; settings: H929 live cell; for % inhibition (range): 10 μM
Protocol: as §1

[24] = biological target: TYK2 domain2 (Homo sapiens (Human), UniProt P29597); settings: H929 live cell
Protocol: as §1

Sequence of LKB1 (Q15831 whole entry): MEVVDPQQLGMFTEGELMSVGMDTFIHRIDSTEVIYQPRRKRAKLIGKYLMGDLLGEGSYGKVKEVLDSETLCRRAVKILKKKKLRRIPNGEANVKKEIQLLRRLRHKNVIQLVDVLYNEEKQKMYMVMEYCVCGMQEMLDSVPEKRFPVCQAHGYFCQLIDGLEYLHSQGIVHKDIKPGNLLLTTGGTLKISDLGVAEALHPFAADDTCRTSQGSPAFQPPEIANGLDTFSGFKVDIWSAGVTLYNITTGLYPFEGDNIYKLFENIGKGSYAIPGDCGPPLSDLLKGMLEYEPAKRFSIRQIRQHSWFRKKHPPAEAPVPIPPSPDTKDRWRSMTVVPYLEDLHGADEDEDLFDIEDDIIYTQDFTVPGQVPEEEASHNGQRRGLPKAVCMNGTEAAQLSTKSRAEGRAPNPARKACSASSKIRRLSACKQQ
Sequence of PFTAIRE1 (O94921 whole entry): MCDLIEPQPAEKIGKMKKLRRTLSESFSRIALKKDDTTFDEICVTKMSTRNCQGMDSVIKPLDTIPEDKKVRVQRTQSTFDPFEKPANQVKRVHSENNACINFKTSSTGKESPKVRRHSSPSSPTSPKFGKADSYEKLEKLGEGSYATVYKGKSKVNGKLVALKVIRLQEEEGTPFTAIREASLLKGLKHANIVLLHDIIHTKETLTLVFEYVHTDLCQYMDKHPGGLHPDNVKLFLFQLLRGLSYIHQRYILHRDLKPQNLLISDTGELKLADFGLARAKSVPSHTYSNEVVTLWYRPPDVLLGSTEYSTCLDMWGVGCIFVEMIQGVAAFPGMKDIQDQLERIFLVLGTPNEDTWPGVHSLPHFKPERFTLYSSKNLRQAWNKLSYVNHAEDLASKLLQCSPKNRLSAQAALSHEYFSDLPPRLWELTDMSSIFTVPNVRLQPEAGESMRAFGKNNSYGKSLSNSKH
Sequence of PFTAIRE1 (Q8ND76 whole entry partner): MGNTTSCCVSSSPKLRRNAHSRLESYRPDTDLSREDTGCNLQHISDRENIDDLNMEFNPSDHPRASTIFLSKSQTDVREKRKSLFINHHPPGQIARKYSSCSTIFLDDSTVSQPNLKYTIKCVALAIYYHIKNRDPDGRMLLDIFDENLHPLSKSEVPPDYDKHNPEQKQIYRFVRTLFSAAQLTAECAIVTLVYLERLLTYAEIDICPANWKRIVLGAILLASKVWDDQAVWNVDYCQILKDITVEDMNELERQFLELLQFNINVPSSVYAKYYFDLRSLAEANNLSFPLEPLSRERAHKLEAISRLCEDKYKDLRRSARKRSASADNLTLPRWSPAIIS
Sequence of MST2 (Q13188 whole entry): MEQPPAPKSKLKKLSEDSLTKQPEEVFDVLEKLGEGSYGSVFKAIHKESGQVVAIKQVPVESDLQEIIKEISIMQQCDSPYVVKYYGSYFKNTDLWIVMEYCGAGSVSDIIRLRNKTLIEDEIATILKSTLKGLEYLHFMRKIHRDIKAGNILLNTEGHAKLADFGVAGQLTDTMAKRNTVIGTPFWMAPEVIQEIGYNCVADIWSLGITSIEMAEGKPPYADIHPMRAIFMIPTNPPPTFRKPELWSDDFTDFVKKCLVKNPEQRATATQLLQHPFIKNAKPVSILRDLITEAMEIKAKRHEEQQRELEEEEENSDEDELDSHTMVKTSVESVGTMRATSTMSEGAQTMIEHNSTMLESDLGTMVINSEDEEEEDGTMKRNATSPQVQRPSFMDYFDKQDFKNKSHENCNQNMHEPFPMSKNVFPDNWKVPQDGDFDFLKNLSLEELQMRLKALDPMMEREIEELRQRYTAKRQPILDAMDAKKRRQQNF
Sequence of TAO2 (Q9UL54 whole entry): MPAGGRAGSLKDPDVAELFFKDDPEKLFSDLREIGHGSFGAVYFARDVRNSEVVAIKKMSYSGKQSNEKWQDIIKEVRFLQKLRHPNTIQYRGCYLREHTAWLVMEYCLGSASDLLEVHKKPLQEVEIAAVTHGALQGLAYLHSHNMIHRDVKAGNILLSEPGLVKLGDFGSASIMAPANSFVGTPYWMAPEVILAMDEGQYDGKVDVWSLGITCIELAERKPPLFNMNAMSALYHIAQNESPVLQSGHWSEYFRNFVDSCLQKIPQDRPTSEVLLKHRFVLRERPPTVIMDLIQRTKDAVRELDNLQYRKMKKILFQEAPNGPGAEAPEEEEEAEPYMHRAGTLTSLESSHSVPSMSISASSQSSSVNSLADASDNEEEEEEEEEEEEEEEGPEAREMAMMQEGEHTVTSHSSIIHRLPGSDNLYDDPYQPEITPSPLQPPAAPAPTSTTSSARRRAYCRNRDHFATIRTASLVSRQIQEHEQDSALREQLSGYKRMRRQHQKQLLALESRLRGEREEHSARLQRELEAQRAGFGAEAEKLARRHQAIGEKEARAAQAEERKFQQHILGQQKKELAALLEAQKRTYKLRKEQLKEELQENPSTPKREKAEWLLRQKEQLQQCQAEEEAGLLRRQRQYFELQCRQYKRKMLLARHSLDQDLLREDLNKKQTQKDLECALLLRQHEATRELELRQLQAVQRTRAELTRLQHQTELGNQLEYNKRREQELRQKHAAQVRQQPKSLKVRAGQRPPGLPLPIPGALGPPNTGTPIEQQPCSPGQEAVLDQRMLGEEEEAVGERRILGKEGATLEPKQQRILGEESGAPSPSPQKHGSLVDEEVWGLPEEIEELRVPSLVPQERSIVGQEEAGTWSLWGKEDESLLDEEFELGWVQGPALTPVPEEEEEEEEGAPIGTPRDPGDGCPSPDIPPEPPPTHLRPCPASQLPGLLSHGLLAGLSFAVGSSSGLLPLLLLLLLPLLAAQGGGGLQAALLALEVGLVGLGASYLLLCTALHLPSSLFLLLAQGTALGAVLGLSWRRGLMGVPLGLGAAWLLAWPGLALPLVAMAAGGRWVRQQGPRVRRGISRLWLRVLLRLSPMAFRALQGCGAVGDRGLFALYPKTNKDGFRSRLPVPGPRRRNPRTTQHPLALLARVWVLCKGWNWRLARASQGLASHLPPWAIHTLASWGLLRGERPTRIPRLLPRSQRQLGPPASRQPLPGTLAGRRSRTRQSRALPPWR
Sequence of MAP2K7 (O14733 whole entry): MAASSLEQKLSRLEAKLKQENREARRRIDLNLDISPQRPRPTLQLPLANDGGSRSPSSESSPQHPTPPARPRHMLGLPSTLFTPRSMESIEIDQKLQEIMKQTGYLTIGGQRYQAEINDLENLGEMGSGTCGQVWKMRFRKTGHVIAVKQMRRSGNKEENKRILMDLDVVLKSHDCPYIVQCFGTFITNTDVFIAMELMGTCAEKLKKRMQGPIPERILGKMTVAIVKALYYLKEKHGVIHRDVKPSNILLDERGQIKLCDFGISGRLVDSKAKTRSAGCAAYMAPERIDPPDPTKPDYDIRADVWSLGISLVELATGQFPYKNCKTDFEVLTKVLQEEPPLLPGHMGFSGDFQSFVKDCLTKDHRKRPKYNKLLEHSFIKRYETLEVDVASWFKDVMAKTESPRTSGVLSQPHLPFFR
Sequence of CaMK2d (Q13557 whole entry): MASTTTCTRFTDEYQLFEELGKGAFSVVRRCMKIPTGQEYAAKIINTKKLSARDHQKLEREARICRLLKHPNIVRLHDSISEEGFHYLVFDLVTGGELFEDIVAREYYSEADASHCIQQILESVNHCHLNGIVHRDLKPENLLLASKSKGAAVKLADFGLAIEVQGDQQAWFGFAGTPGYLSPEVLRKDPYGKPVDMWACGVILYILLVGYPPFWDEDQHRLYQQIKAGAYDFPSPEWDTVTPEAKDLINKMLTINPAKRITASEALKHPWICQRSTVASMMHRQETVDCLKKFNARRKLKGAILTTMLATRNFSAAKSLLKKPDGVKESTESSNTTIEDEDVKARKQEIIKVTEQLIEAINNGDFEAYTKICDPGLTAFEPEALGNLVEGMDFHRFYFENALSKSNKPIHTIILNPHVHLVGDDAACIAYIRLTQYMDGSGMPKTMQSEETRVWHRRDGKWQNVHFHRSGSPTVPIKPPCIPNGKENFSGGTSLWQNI
Sequence of NEK9 (Q8TD19 whole entry): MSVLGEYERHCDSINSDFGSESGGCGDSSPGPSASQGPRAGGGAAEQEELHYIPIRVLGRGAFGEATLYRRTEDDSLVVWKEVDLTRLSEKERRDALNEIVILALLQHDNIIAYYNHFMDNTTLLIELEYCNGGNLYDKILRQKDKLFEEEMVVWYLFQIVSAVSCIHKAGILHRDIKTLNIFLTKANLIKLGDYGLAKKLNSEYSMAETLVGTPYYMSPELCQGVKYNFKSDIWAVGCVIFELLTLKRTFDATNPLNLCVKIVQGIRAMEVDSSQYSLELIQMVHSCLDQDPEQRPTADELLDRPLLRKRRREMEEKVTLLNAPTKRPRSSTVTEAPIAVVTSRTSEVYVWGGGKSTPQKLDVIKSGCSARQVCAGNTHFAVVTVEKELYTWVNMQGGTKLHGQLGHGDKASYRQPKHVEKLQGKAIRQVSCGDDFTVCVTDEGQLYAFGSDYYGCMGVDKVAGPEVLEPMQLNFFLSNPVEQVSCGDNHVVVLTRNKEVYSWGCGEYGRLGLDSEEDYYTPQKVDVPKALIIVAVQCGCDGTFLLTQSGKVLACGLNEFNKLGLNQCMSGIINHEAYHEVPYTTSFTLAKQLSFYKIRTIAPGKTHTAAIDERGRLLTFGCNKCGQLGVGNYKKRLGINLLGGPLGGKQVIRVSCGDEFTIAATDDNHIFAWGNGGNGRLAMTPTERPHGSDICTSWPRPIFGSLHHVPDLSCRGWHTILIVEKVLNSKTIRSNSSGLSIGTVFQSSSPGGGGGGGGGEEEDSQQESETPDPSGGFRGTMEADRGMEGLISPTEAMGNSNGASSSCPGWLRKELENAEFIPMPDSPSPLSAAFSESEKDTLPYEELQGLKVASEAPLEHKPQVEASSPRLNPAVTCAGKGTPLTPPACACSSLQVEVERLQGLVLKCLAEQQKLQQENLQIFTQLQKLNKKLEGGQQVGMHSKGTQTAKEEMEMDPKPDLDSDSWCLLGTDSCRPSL

For `Nc1ncc(-c2cccc([N+](=O)[O-])c2F)cc1-c1ccc2c(c1)CCNC2=O` [Compound I-9, 6-(2-amino-5-(2-fluoro-3-nitrophenyl)pyridin-3-yl)-3,4-dihydroisoquinolin-1(2H)-one], the inhibition at 10 µM ([1]; read-out: % inhibition (range)) was 50 to 75%, the inhibition at 10 µM ([1]; read-out: inhibition (10 μM)) was 74.6% and the inhibition at 10 µM ([2]; read-out: % inhibition (range)) was 75 to 90%. For the same molecule, the inhibition at 10 µM ([2]; read-out: inhibition (10 μM)) was 80.9%, the “% inhibition (range)” value [3] was 0.0% and the “inhibition (10 μM)” value [3] was 33.0%. The inhibition at 10 µM ([4]; read-out: % inhibition (range)) was 50 to 75%, the inhibition at 10 µM ([4]; read-out: inhibition (10 μM)) was 53.4% and the inhibition at 10 µM ([5]; read-out: % inhibition (range)) was 0%. For the same molecule, the inhibition at 10 µM ([5]; read-out: inhibition (10 μM)) was -38.3%, the inhibition at 10 µM ([6]; read-out: % inhibition (range)) was 0% and the inhibition at 10 µM ([6]; read-out: inhibition (10 μM)) was -36.5%. The inhibition at 10 µM ([7]; read-out: % inhibition (range)) was greater than 90%, the inhibition at 10 µM ([7]; read-out: inhibition (10 μM)) was 97.2% and the inhibition at 10 µM ([8]; read-out: % inhibition (range)) was 50 to 75%. The inhibition at 10 µM ([8]; read-out: inhibition (10 μM)) was 70.2%, the inhibition at 10 µM ([9]; read-out: % inhibition (range)) was 0% and the inhibition at 10 µM ([9]; read-out: inhibition (10 μM)) was 14.6%. It also gave an inhibition at 10 µM ([10]; read-out: % inhibition (range)) of 0%, an inhibition at 10 µM ([10]; read-out: inhibition (10 μM)) of 4.5% and an inhibition at 10 µM ([11]; read-out: % inhibition (range)) of 0%. For the same molecule, the inhibition at 10 µM ([11]; read-out: inhibition (10 μM)) was -5.7%, the inhibition at 10 µM ([12]; read-out: % inhibition (range)) was 35 to 50% and the inhibition at 10 µM ([12]; read-out: inhibition (10 μM)) was 35.3%. For the same molecule, the inhibition at 10 µM ([13]; read-out: % inhibition (range)) was 0%, the inhibition at 10 µM ([13]; read-out: inhibition (10 μM)) was 14.6% and the inhibition at 10 µM ([14]; read-out: % inhibition (range)) was 75 to 90%. The inhibition at 10 µM ([14]; read-out: inhibition (10 μM)) was 75.2%, the inhibition at 10 µM ([15]; read-out: % inhibition (range)) was greater than 90% and the inhibition at 10 µM ([15]; read-out: inhibition (10 μM)) was greater than 90%. For the same molecule, the inhibition at 10 µM ([16]; read-out: inhibition (10 μM)) was 44.2%, the inhibition at 10 µM ([17]; read-out: % inhibition (range)) was 75 to 90% and the inhibition at 10 µM ([17]; read-out: inhibition (10 μM)) was 78.2%. The inhibition at 10 µM ([18]; read-out: % inhibition (range)) was 0%, the inhibition at 10 µM ([18]; read-out: inhibition (10 μM)) was -9.5% and the “% inhibition (range)” value [19] was 35-50%. For the same molecule, the “inhibition (10 μM)” value [19] was 40.7%, the inhibition at 10 µM ([20]; read-out: % inhibition (range)) was 75 to 90% and the inhibition at 10 µM ([20]; read-out: inhibition (10 μM)) was 88.9%. The inhibition at 10 µM ([21]; read-out: % inhibition (range)) was 0%, the inhibition at 10 µM ([21]; read-out: inhibition (10 μM)) was 2.6% and the “inhibition (10 μM)” value [22] was 35.5%. The “% inhibition (range)” value [23] was 0.0%, the “inhibition (10 μM)” value [23] was −51.3% and the inhibition at 10 µM ([24]; read-out: % inhibition (range)) was 0%. It also gave an inhibition at 10 µM ([24]; read-out: inhibition (10 μM)) of 29.9%.
`Nc1ncc(-c2cccc3ncsc23)cc1-c1ccc2c(c1)CCNC2=O` [Compound I-13, 6-(2-amino-5-(benzo[d]thiazol-7-yl)pyridin-3-yl)-3,4-dihydroisoquinolin-1(2H)-one] showed an inhibition at 10 µM ([1]; read-out: % inhibition (range)) of 35 to 50%, an inhibition at 10 µM ([1]; read-out: inhibition (10 μM)) of 49.2% and an inhibition at 10 µM ([2]; read-out: % inhibition (range)) of 0%. For the same molecule, the inhibition at 10 µM ([2]; read-out: inhibition (10 μM)) was 19.7%, the “% inhibition (range)” value [3] was 0.0% and the “inhibition (10 μM)” value [3] was −17.0%. It also gave an inhibition at 10 µM ([4]; read-out: % inhibition (range)) of 0%, an inhibition at 10 µM ([4]; read-out: inhibition (10 μM)) of 20.7% and an inhibition at 10 µM ([5]; read-out: % inhibition (range)) of 0%. For the same molecule, the inhibition at 10 µM ([5]; read-out: inhibition (10 μM)) was -10%, the inhibition at 10 µM ([6]; read-out: % inhibition (range)) was 0% and the inhibition at 10 µM ([6]; read-out: inhibition (10 μM)) was -6.1%. It also gave an inhibition at 10 µM ([7]; read-out: % inhibition (range)) of 75 to 90%, an inhibition at 10 µM ([7]; read-out: inhibition (10 μM)) of 88.4% and an inhibition at 10 µM ([8]; read-out: % inhibition (range)) of 50 to 75%. It also gave an inhibition at 10 µM ([8]; read-out: inhibition (10 μM)) of 73.4%, an inhibition at 10 µM ([9]; read-out: % inhibition (range)) of 0% and an inhibition at 10 µM ([9]; read-out: inhibition (10 μM)) of 23.1%. The inhibition at 10 µM ([10]; read-out: % inhibition (range)) was 0%, the inhibition at 10 µM ([10]; read-out: inhibition (10 μM)) was 4.3% and the inhibition at 10 µM ([11]; read-out: % inhibition (range)) was 0%. For the same molecule, the inhibition at 10 µM ([11]; read-out: inhibition (10 μM)) was -4.3%, the inhibition at 10 µM ([12]; read-out: % inhibition (range)) was 0% and the inhibition at 10 µM ([12]; read-out: inhibition (10 μM)) was -19.7%. It also gave an inhibition at 10 µM ([13]; read-out: % inhibition (range)) of 0%, an inhibition at 10 µM ([13]; read-out: inhibition (10 μM)) of 15.1% and an inhibition at 10 µM ([14]; read-out: % inhibition (range)) of 0%. For the same molecule, the inhibition at 10 µM ([14]; read-out: inhibition (10 μM)) was 13.4%, the inhibition at 10 µM ([15]; read-out: % inhibition (range)) was greater than 90% and the inhibition at 10 µM ([15]; read-out: inhibition (10 μM)) was greater than 90%. The inhibition at 10 µM ([16]; read-out: % inhibition (range)) was 0%, the inhibition at 10 µM ([16]; read-out: inhibition (10 μM)) was 25.7% and the inhibition at 10 µM ([17]; read-out: % inhibition (range)) was 0%. For the same molecule, the inhibition at 10 µM ([17]; read-out: inhibition (10 μM)) was 32.9%, the inhibition at 10 µM ([18]; read-out: % inhibition (range)) was 0% and the inhibition at 10 µM ([18]; read-out: inhibition (10 μM)) was 4%. The “% inhibition (range)” value [19] was 0.0%, the “inhibition (10 μM)” value [19] was 2.9% and the inhibition at 10 µM ([20]; read-out: % inhibition (range)) was 75 to 90%. It also gave an inhibition at 10 µM ([20]; read-out: inhibition (10 μM)) of 85.5%, an inhibition at 10 µM ([21]; read-out: % inhibition (range)) of 0% and an inhibition at 10 µM ([21]; read-out: inhibition (10 μM)) of -12.8%. For the same molecule, the “% inhibition (range)” value ([22]; 10 μM) was 50-75%, the “inhibition (10 μM)” value [22] was 59.3% and the “% inhibition (range)” value [23] was 0.0%. For the same molecule, the “inhibition (10 μM)” value [23] was −6.2%, the inhibition at 10 µM ([24]; read-out: % inhibition (range)) was 0% and the inhibition at 10 µM ([24]; read-out: inhibition (10 μM)) was 0.6%.
